US20200297798A1, “KEY AMINO ACID SITES […] EXPORT OF NUC[…] INFLUENZA A AND B VIRUSES AND USE THEREOF AS ANTI-INFLUENZA VIRUS DRUG TARGETS” (INSTITUTE OF MICROBIOLOGY, CHINESE ACADEMY OF SCIENCES, priority 2017, published 2020)

Columns and labels:
ANP Y148F = ANP Y148F (Influenza A virus, UniProt P15682, Y148F)
BNP F209A = BNP F209A (Influenza B virus, UniProt P04665, F209A)

Q: `COc1ccc2cc(C(C)C(=O)O)ccc2c1` (stereo not drawn) [naproxen, (+) α-methyl-6-methoxy-2-naphthaleneacetic acid] was tested. Which “n (stoichiometry)” value (ANP Y148F) did it give?
A: Its value is 0.10.

Q: What about the ΔH (ANP Y148F) of the same compound?
A: The ΔH was -10.92 kcal/mol.

Q: What about the ΔS (ANP Y148F) of the same compound?
A: Its ΔS is −83.45 J/mol · K.

Q: And the “n (stoichiometry)” value (BNP F209A)?
A: The value was 1.68.

Q: And the ΔH (BNP F209A)?
A: Its ΔH is -0.167 kcal/mol.

Q: And the ΔS (BNP F209A)?
A: The ΔS was 102.6 J/mol · K.
